According to the NIST ThermoML archive (doi:10.1021/je060170c):
Where “and” joins values, the source holds several entries; their conditions need not be identical. Equal values may be shown once. ± gives the expanded uncertainty stated by the source.

Columns and labels:
[1] = 101 kPa, Liquid; for viscosity: Anton Paar Stabinger viscometer
[2] = xn = mol fraction of the nth substance listed; settings: 101 kPa, Liquid; for viscosity: Anton Paar Stabinger viscometer

| SMILES | mass density ([1]; 288.15 K) | speed of sound ([1]; 288.15 K) [m/s] | viscosity ([1]; 288.15 K) [mPa·s] | mass density ([1]; 293.15 K) | speed of sound ([1]; 293.15 K) [m/s] | viscosity ([1]; 293.15 K) [mPa·s] | mass density ([1]; 298.15 K) | speed of sound ([1]; 298.15 K) [m/s] | viscosity ([2]; 288.15 K, x2 = 0) [mPa·s] | mass density ([2]; 288.15 K, x2 = 0) [kg/m3] | speed of sound ([2]; 288.15 K, x2 = 0) [m/s] | viscosity ([2]; 293.15 K, x2 = 0) [mPa·s] | mass density ([2]; 293.15 K, x2 = 0) [kg/m3] | speed of sound ([2]; 293.15 K, x2 = 0) [m/s] | viscosity ([2]; 298.15 K, x2 = 0) [mPa·s] | mass density ([2]; 298.15 K, x2 = 0) [kg/m3] | speed of sound ([2]; 298.15 K, x2 = 0) [m/s] | viscosity ([2]; 303.15 K, x2 = 0) [mPa·s] | mass density ([2]; 303.15 K, x2 = 0) [kg/m3] | speed of sound ([2]; 303.15 K, x2 = 0) [m/s] | also measured |
| --- | --- | --- | --- | --- | --- | --- | --- | --- | --- | --- | --- | --- | --- | --- | --- | --- | --- | --- | --- | --- | --- |
| COc1ccccc1 [anisole] | 998.441 ± 0.23 kg/m3 and 998.44 ± 0.23 kg/m3 | 1449.1 ± 5.8 | 1.188 ± 0.024 | 993.649 ± 0.23 kg/m3 and 993.653 ± 0.23 kg/m3 and 993.651 ± 0.23 kg/m3 | 1428.5 ± 5.7 | 1.084 ± 0.022 | 989.106 ± 0.24 kg/m3 [middle of 4 runs] | 1408 ± 5.7 |  |  |  |  |  |  |  |  |  |  |  |  | viscosity ([1]; 298.15 K): 1.017 ± 0.021 mPa·s; mass density ([1]; 303.15 K): 984.372 ± 0.24 kg/m3 and 984.37 ± 0.25 kg/m3 and 984.374 ± 0.24 kg/m3; speed of sound ([1]; 303.15 K): 1387.7 ± 5.6 m/s and 1386.7 ± 5.6 m/s; viscosity ([1]; 303.15 K): 0.931 ± 0.019 mPa·s |
| COc1ccccc1 [anisole] + Cc1cc(C)cc(C)c1 |  |  |  |  |  |  |  |  |  |  |  |  |  |  |  |  |  |  |  |  | viscosity ([2]; 288.15 K, x1 = 1): 1.188 ± 0.036 mPa·s; mass density ([2]; 288.15 K, x1 = 1): 998.44 ± 0.23 kg/m3; speed of sound ([2]; 288.15 K, x1 = 1): 1449.1 ± 5.8 m/s; viscosity ([2]; 293.15 K, x1 = 1): 1.084 ± 0.033 mPa·s; mass density ([2]; 293.15 K, x1 = 1): 993.651 ± 0.23 kg/m3; speed of sound ([2]; 293.15 K, x1 = 1): 1428.5 ± 5.7 m/s; viscosity ([2]; 298.15 K, x1 = 1): 1.017 ± 0.031 mPa·s; mass density ([2]; 298.15 K, x1 = 1): 989.106 ± 0.24 kg/m3; speed of sound ([2]; 298.15 K, x1 = 1): 1408 ± 5.7 m/s; viscosity ([2]; 303.15 K, x1 = 1): 0.931 ± 0.028 mPa·s; mass density ([2]; 303.15 K, x1 = 1): 984.37 ± 0.25 kg/m3; speed of sound ([2]; 303.15 K, x1 = 1): 1386.7 ± 5.6 m/s |
| Cc1cccc(C)c1 [1,3-dimethylbenzene] | 868.317 ± 0.37 kg/m3 | 1362.6 ± 5.5 | 0.666 ± 0.014 | 864.049 ± 0.38 kg/m3 | 1357 ± 25 | 0.619 ± 0.013 | 859.767 ± 0.38 kg/m3 | 1321 ± 5.4 |  |  |  |  |  |  |  |  |  |  |  |  | viscosity ([1]; 298.15 K): 0.581 ± 0.012 mPa·s; mass density ([1]; 303.15 K): 855.469 ± 0.39 kg/m3; speed of sound ([1]; 303.15 K): 1300.3 ± 5.3 m/s; viscosity ([1]; 303.15 K): 0.552 ± 0.011 mPa·s |
| Cc1cccc(C)c1 [1,3-dimethylbenzene] + COc1ccccc1 |  |  |  |  |  |  |  |  | 0.666 ± 0.014 | 868.317 ± 0.37 | 1362.6 ± 5.5 | 0.619 ± 0.013 | 864.049 ± 0.38 | 1343.4 ± 5.4 | 0.581 ± 0.012 | 859.767 ± 0.38 | 1321 ± 5.4 | 0.552 ± 0.011 | 855.469 ± 0.39 | 1300.3 ± 5.3 |  |
| Cc1ccc(C)cc1 [1,4-dimethylbenzene] + COc1ccccc1 |  |  |  |  |  |  |  |  | 0.701 ± 0.021 | 865.253 ± 0.37 | 1352 ± 5.5 | 0.65 ± 0.02 | 860.917 ± 0.38 | 1331.1 ± 5.4 | 0.611 ± 0.018 | 856.617 ± 0.39 | 1310 ± 5.3 | 0.576 ± 0.017 | 852.255 ± 0.39 | 1289.7 ± 5.3 |  |
| Cc1ccccc1 [toluene] + COc1ccccc1 |  |  |  |  |  |  |  |  | 0.63 ± 0.013 | 871.412 ± 0.33 | 1350 ± 5.4 | 0.588 ± 0.012 | 866.874 ± 0.34 | 1327.2 ± 5.4 | 0.556 ± 0.011 | 862.2 ± 0.35 | 1305.4 ± 5.3 | 0.523 ± 0.011 | 857.464 ± 0.35 | 1283.8 ± 5.2 |  |
